In ChEMBL document CHEMBL3045318, “Synthesis and Antimicrobial Evaluation of Some t(3)-Alkyl and t(3),t(5)-Dimethyl-r(2),c(6)-DI-2-Furfurylpiperidin-4-one and its Derivatives” (2005):
Values after ≈ are worked out from the molar mass of the structure shown. Active and inactive are the calls of the source. The rule behind the calls is not given here.

What was measured:
Aspergillus niger [1] = assay: Antimicrobial activity against Aspergillus niger after 72 to 96 hr by serial dilution method; assay type: functional
Klebsiella pneumoniae [2] = assay: Antimicrobial activity against Klebsiella pneumoniae after 24 hr by serial dilution method; assay type: functional
Candida [3] = assay: Antimicrobial activity against Candida 6 after 72 to 96 hr by serial dilution method; assay type: functional
Bacillus subtilis = assay: Antimicrobial activity against Bacillus subtilis after 24 hr by serial dilution method; assay type: functional
Enterococcus faecalis [4] = assay: Antimicrobial activity against Enterococcus faecalis after 24 hr by serial dilution method; assay type: functional
Pseudomonas aeruginosa [5] = assay: Antimicrobial activity against Pseudomonas aeruginosa after 24 hr by serial dilution method; assay type: functional
Escherichia coli = assay: Antimicrobial activity against Escherichia coli after 24 hr by serial dilution method; assay type: functional
Cryptococcus neoformans [6] = assay: Antimicrobial activity against Cryptococcus neoformans after 72 to 96 hr by serial dilution method; assay type: functional
Candida [7] = assay: Antimicrobial activity against Candida-51 after 72 to 96 hr by serial dilution method; assay type: functional
Aspergillus flavus [8] = assay: Antimicrobial activity against Aspergillus flavus after 72 to 96 hr by serial dilution method; assay type: functional
Pseudomonas aeruginosa [9] = assay: Antimicrobial activity against Pseudomonas aeruginosa at 100 ug/ml after 24 hr by serial dilution method; assay type: functional, organism-based
Aspergillus niger [10] = assay: Antimicrobial activity against Aspergillus niger at 100 ug/ml after 72 to 96 hr by serial dilution method; assay type: functional, organism-based
Cryptococcus neoformans [11] = assay: Antimicrobial activity against Cryptococcus neoformans at 200 ug/ml after 72 to 96 hr by serial dilution method; assay type: functional, organism-based
Cryptococcus neoformans [12] = assay: Antimicrobial activity against Cryptococcus neoformans at 100 ug/ml after 72 to 96 hr by serial dilution method; assay type: functional, organism-based
Aspergillus niger [13] = assay: Antimicrobial activity against Aspergillus niger at 200 ug/ml after 72 to 96 hr by serial dilution method; assay type: functional, organism-based
Klebsiella pneumoniae [14] = assay: Antimicrobial activity against Klebsiella pneumoniae at 100 ug/ml after 24 hr by serial dilution method; assay type: functional, organism-based
Aspergillus flavus [15] = assay: Antimicrobial activity against Aspergillus flavus at 100 ug/ml after 72 to 96 hr by serial dilution method; assay type: functional, organism-based
Enterococcus faecalis [16] = assay: Antimicrobial activity against Enterococcus faecalis at 100 ug/ml after 24 hr by serial dilution method; assay type: functional, organism-based
Aspergillus flavus [17] = assay: Antimicrobial activity against Aspergillus flavus at 200 ug/ml after 72 to 96 hr by serial dilution method; assay type: functional, organism-based

| SMILES | MIC (Aspergillus niger [1]) [µg/mL] | MIC (Klebsiella pneumoniae [2]) [µg/mL] | MIC (Candida [3]) [µg/mL] | MIC (Bacillus subtilis) [µg/mL] | MIC (Enterococcus faecalis [4]) [µg/mL] | MIC (Pseudomonas aeruginosa [5]) [µg/mL] | MIC (Escherichia coli) [µg/mL] | MIC (Cryptococcus neoformans [6]) [µg/mL] | MIC (Candida [7]) [µg/mL] | MIC (Aspergillus flavus [8]) [µg/mL] | inhibition (Pseudomonas aeruginosa [9]) | inhibition (Aspergillus niger [10]) | inhibition (Cryptococcus neoformans [11]) | inhibition (Cryptococcus neoformans [12]) | inhibition (Aspergillus niger [13]) | inhibition (Klebsiella pneumoniae [14]) | inhibition (Aspergillus flavus [15]) | inhibition (Enterococcus faecalis [16]) | inhibition (Aspergillus flavus [17]) |
| --- | --- | --- | --- | --- | --- | --- | --- | --- | --- | --- | --- | --- | --- | --- | --- | --- | --- | --- | --- |
| CCC1/C(=N\O)CC(c2ccco2)NC1c1ccco1 (stereo unspecified) | 50 (≈ 182 µM) | 6.25 (≈ 22.8 µM) | 25 (≈ 91.1 µM) | 25 (≈ 91.1 µM) | 25 (≈ 91.1 µM) | 12.5 (≈ 45.6 µM) | 25 (≈ 91.1 µM) | 12.5 (≈ 45.6 µM) | 12.5 (≈ 45.6 µM) | 25 (≈ 91.1 µM) |  |  |  |  |  |  |  |  |  |
| CCC1C(=O)CC(c2ccco2)NC1c1ccco1 (stereo unspecified) |  |  | 50 (≈ 193 µM) | 25 (≈ 96.4 µM) | 100 (≈ 386 µM) |  | 25 (≈ 96.4 µM) |  | 100 (≈ 386 µM) | 100 (≈ 386 µM) | inactive | inactive | inactive | inactive | inactive | inactive |  |  |  |
| CC1/C(=N\O)CC(c2ccco2)NC1c1ccco1 (stereo unspecified) | 100 (≈ 384 µM) | 12.5 (≈ 48 µM) | 50 (≈ 192 µM) | 25 (≈ 96 µM) | 25 (≈ 96 µM) | 25 (≈ 96 µM) | 12.5 (≈ 48 µM) | 25 (≈ 96 µM) | 12.5 (≈ 48 µM) | 50 (≈ 192 µM) |  |  |  |  |  |  |  |  |  |
| CC1C(=O)C(C)C(c2ccco2)NC1c1ccco1 (stereo unspecified) | 100 (≈ 386 µM) | 100 (≈ 386 µM) | 50 (≈ 193 µM) | 12.5 (≈ 48.2 µM) | 50 (≈ 193 µM) |  | 12.5 (≈ 48.2 µM) |  | 50 (≈ 193 µM) | 50 (≈ 193 µM) | inactive |  | inactive | inactive |  |  |  |  |  |
| C[C@@H]1[C@H](O)[C@@H](C)/C=C/C=C/C=C/C=C/C=C/C=C/C=C/[C@H](O[C@@H]2O[C@H](C)[C@@H](O)[C@H](N)[C@@H]2O)C[C@@H]2O[C@](O)(C[C@@H](O)C[C@@H](O)[C@H](O)CC[C@@H](O)C[C@@H](O)CC(=O)O[C@H]1C)C[C@H](O)[C@H]2C(=O)O [AMPHOTERICIN B] | 50 (≈ 54.1 µM) |  | 25 (≈ 27.1 µM) |  |  |  |  | 25 (≈ 27.1 µM) | 25 (≈ 27.1 µM) | 50 (≈ 54.1 µM) |  |  |  |  |  |  |  |  |  |
| CN[C@@H]1[C@H](O[C@H]2[C@H](O[C@H]3[C@H](O)[C@@H](O)[C@H](N=C(N)N)[C@@H](O)[C@@H]3N=C(N)N)O[C@@H](C)[C@]2(O)C=O)O[C@@H](CO)[C@H](O)[C@H]1O [STREPTOMYCIN] |  | 25 (≈ 43 µM) |  | 12.5 (≈ 21.5 µM) | 50 (≈ 86 µM) | 25 (≈ 43 µM) | 12.5 (≈ 21.5 µM) |  |  |  |  |  |  |  |  |  |  |  |  |
| CC1C(=NO)C(C)C(c2ccco2)NC1c1ccco1 (stereo unspecified) | 25 (≈ 91.1 µM) | 6.25 (≈ 22.8 µM) | 12.5 (≈ 45.6 µM) | 25 (≈ 91.1 µM) | 25 (≈ 91.1 µM) | 50 (≈ 182 µM) | 25 (≈ 91.1 µM) | 6.25 (≈ 22.8 µM) | 12.5 (≈ 45.6 µM) | 12.5 (≈ 45.6 µM) |  |  |  |  |  |  |  |  |  |
| CC1C(=O)CC(c2ccco2)NC1c1ccco1 (stereo unspecified) |  |  | 100 (≈ 408 µM) | 50 (≈ 204 µM) |  |  | 50 (≈ 204 µM) |  | 100 (≈ 408 µM) |  | inactive | inactive | inactive | inactive | inactive | inactive | inactive | inactive | inactive |
